How the values were obtained:
MOLT-4 (leukemia) cells = experiment: MTT cytotoxicity assay, MOLT-4; assay type: cell-based, human
Protocol: (§1) Fourteen new benzofuran derivatives were tested for their cytotoxic properties in K562, MOLT-4 (leukemia, suspension cells), HeLa (cervix carcinoma, adherent cells), and normal endothelial cells (HUVEC). First, we measured the viability of cells after 48 h incubation with the given compound at the concentration of 100 μM. Next, for compounds that reduced cancer cells survival for more than 50%, we determined IC50 values. Cells that were exposed to 1% DMSO (a vehicle) served as the control with 100% survival. Cells treated with 1 µM staurosporine served as the internal control of the cytotoxicity experiments.
(§2) Human umbilical vein endothelial cells (Life Technologies, Waltham, MA, USA) were cultured (according to the manufacturer instructions) in Medium 200 supplemented with Low Serum Growth Supplement. 1 × 10^4 HUVEC cells were seeded on each well on a 96-well plate (Nunc). The HeLa (human cervix carcinoma) K562 and MOLT-4 (leukemia) cells were cultured in RPMI 1640 medium supplemented with antibiotics and 10% fetal calf serum (HeLa, K562) in a 5% CO2-95% air atmosphere. 7 × 10^3 HeLa, K562, or MOLT-4 cells were seeded on each well on 96-well plate (Nunc). 24 h later cells were treated with the test compounds and then incubated for an additional 48 hours. Stock solutions of test compounds were freshly prepared in DMSO (dimethylsulfoxide). The final concentrations of compounds that were tested in the cell cultures were: 2 × 10^−1, 1 ×10^−1, 5 × 10^−2, 1 × 10^−2, 1 × 10^−3 and 1 × 10^−4 mM. The concentration of DMSO in the cell culture medium was 1%.
(§3) The values of IC50 (the concentration of test compound that is required to reduce the cell survival fraction to 50% of the control) were calculated from dose-response curves and used as a measure of cellular sensitivity to a given treatment.
(§4) The MTT [3-(4,5-dimethylthiazol-2-yl)-2,5-diphenyltetrazolium bromide; Sigma, St. Louis, MO, USA] assay determined the cytotoxicity of all the compounds, as described previously. Briefly, after 24 h or 48 h of incubation with the drug, the cells were treated with the MTT reagent, and incubation was continued for 2 h. MTT-formazan crystals were dissolved in 20% SDS and 50% DMF at pH 4.7 and absorbance was read at 570 and 650 nm on an ELISA-PLATE READER (FLUOstar Omega, BMG LABTECH GmbH, Ortenberg, Germany). As a control (100% viability), cells that were grown in the presence of medium vehicle only with 1% DMSO were used.

[1] = system: plasmid DNA (pcDNA3.1 HisC); experiment: Digestion of plasmid DNA with BamHI restriction nuclease; assay type: biochemical; conditions: 100 µM, overnight 37 °C, then BamHI 3 h; agarose gel
Text: We hypothesized that a possible explanation of observed cytotoxicity might be due to an interaction of test benzofurans with genomic DNA (e.g., by intercalation). To verify this hypothesis, we investigated whether the test benzofurans have any effect on digestion of a plasmid DNA (pcDNA3.1 HisC) with endonuclease BamH1. pcDNA3.1 HisC contains a unique BamH1 restriction site which allows for plasmid linearization. Plasmid DNA exists in linear, superhelical, and circular forms that differ in electrophoretic mobility (Figure 6 lane 1). Plasmid DNA was converted to a linear form upon digestion with BamH1 (lane 2). […] In the presence of test compounds, pcDNA3.1 HisC was partially digested with Bam H1 restriction enzyme (Figure 6 lanes 4–7). Most of the plasmid DNA was converted to a linear form, however there is a circular form still present.
0.5 μg of plasmid DNA (pcDNAHisC, total length 5.5 kbp) containing a unique BamHI restriction site was dissolved in a 1× BamHI reaction buffer and then incubated overnight at 37 °C with the test compounds or daunorubicin, a strong intercalating agent, which was used as a positive control. The concentration of the test compounds and daunorubicin samples was 100 µM. In the next step, the reaction mixtures were digested with BamHI restriction endonuclease (2 U/μL) for 3 h at 37 °C. The total reaction volume was 10 μL. Products of the reaction were subjected to the 1% agarose gel electrophoresis in TBE buffer. The gel was stained with ethidium bromide and DNA fragments were visualized under a UV lamp (GBox, Syngene, Cambridge, UK).
Figure 6 Digestion of pcDNA3.1HisC (total length 5.5kbp) with BamH1 endonuclease. M—marker DNA; 1—not digested plasmid DNA; 2—plasmid DNA digested with BamH1 (DNA present in linear form); 3—plasmid DNA + daunorubicin + BamH1; 4—plasmid DNA + 1c + BamH1; 5—plasmid DNA + 2d + BamH1; 6—plasmid DNA + 1e + BamH1; and, 7—plasmid DNA + 3d + BamH1.

[2] = system: HeLa (human cervix carcinoma) cells; experiment: MTT cytotoxicity assay, HeLa; assay type: cell-based
Protocol: as §1, §2, §3, §4

[3] = system: Human umbilical vein endothelial cells (HUVEC); experiment: MTT cytotoxicity assay, HUVEC; assay type: cell-based
Protocol: as §1, §2, §3, §4

[4] = system: caspase 3/7 in K562 cells; experiment: Apo-ONE Homogeneous Caspase-3/7 Assay in K562 cells; assay type: cell-based, human; conditions: compound at 5 × IC50 (staurosporine 1 µM), 18 h, 1% DMSO normalized to 1.0
Protocol: We have measured the activity of caspases 3 and 7 (caspase 3/7), which are markers of programmed cell death. […] The activity of caspase 3/7 was measured using pro-fluorescent peptide substrate.
20 × 10^3 K562 cells were seeded on each well of 96-well plate in RPMI 1640 medium supplemented with 10% fetal calf serum and antibiotics. Cells were grown for 24 h at 37 °C and 5% CO2. The test compounds were dissolved in DMSO and added to the cell culture. The concentration of tested benzo[b]furans in cell culture was 5 × IC50.
Cells treated with 1% DMSO served as a negative control, while cells incubated with staurosporine (a strong inducer of apoptosis) were used as a positive control. Cells were exposed to test compounds for 18 h at 37 °C and 5% CO2. Subsequently, Apo-ONE® Homogeneous Caspase-3/7 Assay (Promega, Madison, WI, USA) measured the activity of caspase 3 and 7, according to the manufacturer’s instructions. Briefly, the cells were lysed and incubated for 1.5 h with profluorescent substrate for caspase 3 and 7. Next, fluorescence was read at an excitation wavelength of 485 nm and emission of 520 nm with FLUOStar Omega plate reader (BMG-Labtech, Ortenberg, Germany).
Figure 5 Activity of caspase 3 and 7 in K562 cells treated with the test benzofurans 1c, 1e, 2d, 3d, or staurosporine for 18 h. Apoptosis was determined by Apo-ONE® Homogeneous Caspase-3/7 Assay (Promega, Madison, WI, USA). Abbreviations: DMSO—K562 cells treated with 1% DMSO. The caspase activation level in cells exposed to 1% DMSO was normalized to 1.0. Mean values +/− SD are shown.

cancer cell lines = experiment: MTT cytotoxicity, cancer cell lines overall; assay type: cell-based, human; conditions: compared to lead compounds VIII-X
Protocol: as §1, §2, §3, §4

K562 (leukemia) cells = experiment: MTT cytotoxicity assay, K562; assay type: cell-based, human; conditions: initial screening, 100 μM, 48 h
Protocol: as §1, §2, §3, §4

[5] = system: healthy endothelial cells (HUVEC); design: method as in PMID 25482722, PMID 30465514; conditions: previous studies; cited from earlier work
cancer cells = system: cancer cells; design: method as in PMID 25482722, PMID 30465514; conditions: previous studies; cited from earlier work
HeLa cancer cells = system: HeLa cancer cells; design: method as in PMID 25482722, PMID 30465514; conditions: previous studies; cited from earlier work
HL-60 leukemic cell line = system: HL-60 leukemic cell line; design: method as in PMID 25482722, PMID 30465514; conditions: previous studies; cited from earlier work
K562 leukemic cell line = system: K562 leukemic cell line; design: method as in PMID 25482722, PMID 30465514; conditions: previous studies; cited from earlier work
[6] = initial screening, 100 μM, 48 h

In the case of `COC(=O)c1c(CBr)oc2cc(C(C)=O)c(O)cc12` [Compound 2d, Methyl 6-acetyl-2-(bromomethyl)-5-hydroxybenzofuran-3-carboxylate], the IC50 (MOLT-4 (leukemia) cells; Homo sapiens, MOLT-4, 48 h incubation with cells, MTT) is reported as 35 µM, the “reduction of viability of MOLT-4 cells” value (MOLT-4 (leukemia) cells; [6]) is reported as “more than 50%” and the “inhibition of digestion of plasmid DNA with BamH1 / interaction with DNA” value [1] is reported as “to some extent, interact with DNA”. For the same compound, the IC50 ([2]; Homo sapiens, HeLa, 48 h incubation with cells, MTT) was 35 µM, the “reduction of viability of HeLa cells” value [2, 6] was “more than 50%” and the IC50 ([3]; Homo sapiens, HUVEC, 48 h incubation with cells, MTT) was 30 µM. For the same compound, the “cytotoxicity against human normal endothelial cells” value [3, 6] was “cytotoxic”, the “increase in the activity of caspase 3/7” value [4] was “about two-fold” and the “decrease of cytotoxicity against human cancer cells compared to the lead compounds VIII-X” value (cancer cell lines) was 5–10 folds. For the same compound, the “reduction of viability of K562 cells” value (K562 (leukemia) cells) was “more than 50%”.
For `COC(=O)c1c(C)oc2cc(C(=O)C(Br)Br)c(O)c(Br)c12` [IX], the “toxicity towards endothelial cells (HUVEC)” value [5] is given as “non-toxic” and the “IC50 towards cancer cells” value (cancer cells) is given as “in a few µM range”.
For `COc1cc2c(CBr)c(C(C)=O)oc2c(C(C)=O)c1OC` [VIII], the IC50 (HeLa cancer cells) is listed as over 1000 µM, the IC50 (HL-60 leukemic cell line) is listed as 0.1 µM and the IC50 [5] is listed as over 1000 µM. For the same compound, the IC50 (K562 leukemic cell line) was 5 µM.
In the case of `COC(=O)c1c(C)oc2cc(C(=O)C(Br)Br)c(OC)cc12` [X, methyl 6-(dibromoacetyl)-5-methoxy-2-methylbenzofuran-3-carboxylate], the “toxicity towards endothelial cells (HUVEC)” value [5] is listed as “non-toxic” and the “IC50 towards cancer cells” value (cancer cells) is listed as “in a few µM range”.

From PMC6514909, “Synthesis of New Derivatives of Benzofuran as Potential Anticancer Agents” (Molecules, 2019)
